The values that follow come from patent US7087757B2, “Phenyl-substituted imidazopyridines” (Ortho-McNeil Pharmaceutical, Inc., priority 2000, dated 2006).

T1 sequence (Q9Y5N1 whole entry): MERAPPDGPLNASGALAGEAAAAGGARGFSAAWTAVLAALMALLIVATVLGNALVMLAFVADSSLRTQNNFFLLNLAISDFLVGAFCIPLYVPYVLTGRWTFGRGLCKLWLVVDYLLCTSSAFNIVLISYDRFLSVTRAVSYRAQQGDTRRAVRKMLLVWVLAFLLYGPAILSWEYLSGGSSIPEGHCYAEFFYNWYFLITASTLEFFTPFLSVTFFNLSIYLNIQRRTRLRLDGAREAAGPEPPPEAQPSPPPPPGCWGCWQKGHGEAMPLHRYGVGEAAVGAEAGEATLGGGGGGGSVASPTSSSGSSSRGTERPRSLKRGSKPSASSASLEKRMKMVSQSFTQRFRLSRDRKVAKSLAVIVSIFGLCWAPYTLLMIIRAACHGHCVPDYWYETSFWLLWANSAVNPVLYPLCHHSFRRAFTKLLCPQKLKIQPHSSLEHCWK

This test has as its target T1, human histamine H3 receptor (Homo sapiens, UniProt Q9Y5N1).
T1 construct: One microgram supercoiled H3 receptor cDNA was added to the cells and mixed; expressed in transfected cells; membranes prepared from cell pellets
As to the kind of experiment: [3H]-N-methylhistamine binding. The note with it: membranes of histamine H3 receptor-expressing SK-N-MC cells; 0.8 nM [3H]-N-methylhistamine; 45 minutes at 25° C.; Ki calculated with KD of 800 pM. How it is done: Screening using the human receptor is particularly important for the identification of new therapies for the treatment of human disease.
A 10 cm tissue culture dish with a confluent monolayer of SK-N-MC cells was split two days prior to transfection. Using sterile technique the media was removed and the cells were detached from the dish by the addition of trypsin. One fifth of the cells were then placed onto a new 10 cm dish. Cells were grown in a 37° C. incubator with 5% CO2 in Minimal Essential Media Eagle with 10% Fetal Bovine Serum. After two days cells were approximately 80% confluent. These were removed from the dish with trypsin and pelleted in a clinical centrifuge. […] One microgram supercoiled H3 receptor cDNA was added to the cells and mixed. The voltage for the electroporation was set at 0.25 kV, the capacitance is set at 960 μF.
After electroporation the cells were diluted into 10 mL complete media and plated onto four 10 cm dishes. Due to the variability in the efficiency of electroporation, four different concentrations of cells were plated. The ratios used were: 1:20, 1:10, and 1:5, with the remainder of the cells being added to the fourth dish. The cells were allowed to recover for 24 hours before adding the selection media (complete media with 600 μg/ml G418). After 10 days dishes were analyzed for surviving colonies of cells. Dishes with well-isolated colonies were used. Cells from individual colonies were isolated and tested. SK-N-MC cells were used because they give efficient coupling for inhibition of adenylate cyclase. The clones that gave the most robust inhibition of adenylate cyclase in response to histamine were used for further study.
Cell pellets from histamine H3 receptor-expressing SK-N-MC cells were homogenized in 20 mM Tris HCl/0.5 mM EDTA. Supernatants from a 800 g spin were collected, reccentrifuged at 30,000 g for 30 minutes. Pellets were rehomogenized in 50 mM Tris/5 mM EDTA (pH 7.4). Membranes were incubated with 0.8 nM [^3H]-N-methylhistamine plus/minus test compounds for 45 minutes at 25° C. and harvested by rapid filtration over GF/C glass fiber filters (pretreated with 0.3% polyethylenimine) followed by four washes with ice cold buffer. Filters were dried, added to 4 mL scintillation cocktail and then counted on a liquid scintillation counter.
The Ki is the dissociation constant of the complex between target and ligand, obtained from inhibition or displacement. Turning to `Cc1ccn2cc(-c3ccc(C=CCCN4CCCCC4)cc3)nc2c1` (mixture of isomers) [Example 36, (E/Z)-2-[4-[4-Piperidinobut-1-enyl]phenyl]-7-methylimidazo[1,2-a]pyridine], the Ki is 0.011 µM.
With `CCN(CC)CCNC(=O)c1ccc(-c2cn3cccc(C)c3n2)cc1` [Example 1, N-(2-Diethylamino-ethyl)-4-(8-methyl-imidazo[1,2-a]pyridin-2-yl)-benzamide] the figure was 0.09 µM; with `Cc1cccn2cc(-c3ccc(C(=O)OCCN(C)C)cc3)nc12` [Example 2, 4-(8-Methyl-imidazo[1,2-a]pyridin-2-yl)-benzoic acid 2-dimethylamino-ethyl ester], 0.089 µM; with `CCN(CC)CCOC(=O)c1ccc(-c2cn3cccc(C)c3n2)cc1` [Example 3, 4-(8-Methyl-imidazo[1,2-a]pyridin-2-yl)-benzoic acid 2-diethylamino-ethyl ester], 0.02 µM.
With `Cc1cccn2cc(-c3ccc(NC(=O)CN4CCCC4)cc3)nc12` [Example 4, N-[4-(8-Methyl-imidazo[1,2-a]pyridin-2-yl)-phenyl]-2-pyrrolidin-1-yl-acetamide] the figure was 0.07 µM.
With `CCCN(CCC)CC(C)COc1ccc(-c2cn3cccc(C)c3n2)cc1` (stereo not drawn) [Example 5, {2-Methyl-3-[4-(8-methyl-imidazo[1,2-a]pyridin-2-yl)-phenoxy]-propyl}-dipropyl-amine] the figure was 0.05 µM.
Take `CCN(CC)CCC(=O)Nc1ccc(-c2cn3cccc(C)c3n2)cc1` [Example 6, 3-Diethylamino-N-[4-(8-methyl-imidazo[1,2-a]pyridin-2-yl)-phenyl]-propionamide]: the Ki is 0.055 µM.
With `CCN(CC)CCNc1ccc(-c2cn3cccc(C)c3n2)cc1` [Example 7, N,N-Diethyl-N′-[4-(8-methyl-imidazo[1,2-a]pyridin-2-yl)-phenyl]-ethane-1,2-diamine], the Ki is 0.004 µM.
With `Cc1cc(-c2cn3cccc(C)c3n2)ccc1OCCCN1CCCCC1` [Example 9, 2-(4-Piperidinopropoxy-3-methylphenyl)-8-methylimidazo[1,2-a]pyridine] the figure was 0.032 µM; with `CCN(CCOc1ccc(-c2cn3ccccc3n2)cc1)c1ccccc1` [Example 10, 2-(4-(N-Ethyl)anilinoethoxyphenyl)imidazo[1,2-a]pyridine], 0.611 µM.
With `Cc1cc(-c2cn3ccccc3n2)ccc1OCCC1CCCN1C` (stereo not drawn) [Example 11, 2-[4-[2-(1-Methyl)-2-pyrrolidino]ethoxy-3-methylphenyl]imidazo[1,2-a]pyridine], the Ki is 0.007 µM.
In the case of `Cc1cc(-c2cn3ccccc3n2)ccc1OCCCN1CCCCC1` [Example 12, 2-(4-Piperidinopropoxy-3-methylphenyl)imidazo[1,2-a]pyridine], the Ki is 0.021 µM.
With `COc1cc(-c2cn3ccc(C)cc3n2)ccc1OCCCN1CCCC1` [Example 13, 2-[3-Methoxy-4-(3-pyrrolidin-1-yl-propoxy)-phenyl]-7-methyl-imidazo[1,2-a]pyridine] the figure was 0.063 µM.
With `COc1cc(-c2cn3ccc(C)cc3n2)ccc1OCCCN1CCCCCC1` [Example 14, 2-[4-(3-Azepan-1-yl-propoxy)-3-methoxy-phenyl]-7-methyl-imidazo[1,2-a]pyridine] the figure was 0.034 µM; with `Cc1ccn2cc(-c3cccc(OCCCN4CCCCC4)c3)nc2c1` [Example 15, 7-Methyl-2-[3-(3-piperidin-1-yl-propoxy)-phenyl]-imidazo[1,2-a]pyridine], 0.028 µM.
As to `c1cc(-c2cn3c(n2)CCCC3)ccc1OCCCN1CCCCC1` [Example 16, 2-[4-(3-Piperidin-1-yl-propoxy)-phenyl]-5,6,7,8-tetrahydro-imidazo[1,2-a]pyridine], the inhibition constant (Ki) was 0.00075 µM.
With `Cc1cc(OCCCN2CCCCC2)ccc1-c1cn2c(n1)CC(C)CC2` (stereo not drawn) [Example 17, 7-Methyl-2-[2-methyl-4-(3-piperidin-1-yl-propoxy)-phenyl]-5,6,7,8-tetrahydro-imidazo[1,2-a]pyridine] the figure was 0.0032 µM.
For `Cc1ccn2cc(-c3ccc(OCCCN4CCCC4)cc3)nc2c1` [Example 18, 2-(4-Pyrrolidinopropoxyphenyl)-7-methylimidazo[1,2-a]pyridine], the Ki is 0.002 µM.
With `Cc1ccn2cc(-c3ccc(OCCCN4CCCCCC4)cc3)nc2c1` [Example 19] the figure was 0.002 µM.
With `Cc1ccn2cc(-c3ccc(OCCCN4CCCCC4)cc3F)nc2c1` [Example 20, 2-(4-Piperidinopropoxy-2-fluorophenyl)-7-methylimidazo[1,2-a]pyridine] the figure was 0.01 µM.
With `Cc1ccn2cc(-c3ccc(OCCCN4CCCCCC4)cc3F)nc2c1` [Example 21] the figure was 0.015 µM.
For the molecule `Cc1ccn2cc(-c3ccc(OCCCN4CCCCC4)cc3C)nc2c1` [Example 22, 2-(4-Piperidinopropoxy-2-methylphenyl)-7-methylimidazo[1,2-a]pyridine], the inhibitory constant (Ki) was 0.001 µM.
With `Cc1ccn2cc(-c3ccc(OCCCN4CCC(N5CCCCC5)CC4)cc3C)nc2c1` [Example 23, 2-(4-(4-Piperidino)piperidinopropoxy-2-methylphenyl)-7-methylimidazo[1,2-a]pyridine], the inhibition constant (Ki) is 0.014 µM.
With `Cc1ccn2cc(-c3ccc(OCCCN4CCCCCC4)cc3C)nc2c1` [Example 24], the Ki is 0.0005 µM.
With `Cc1ccn2cc(-c3ccc(OCCCNCc4ccc(F)cc4)cc3)nc2c1` [Example 25, 2-(4-(4-Fluorobenzyl)aminopropoxyphenyl)-7-methylimidazo[1,2-a]pyridine] the figure was 1.5 µM; with `COc1cc(-c2cn3ccc(C)cc3n2)ccc1OCCCN1CCCCC1` [Example 26, 2-(4-Piperidinopropoxy-3-methoxyphenyl)-7-methylimidazo[1,2-a]pyridine], 0.159 µM.
With `Cc1cccn2cc(-c3ccc(NCCCN4CCCCC4)cc3)nc12` [Example 27, 2-[4-[3-(Piperidino)propylamino]phenyl]-8-methylimidazo[1,2-a]pyridine] the figure was 0.007 µM; with `Cc1cccn2cc(-c3ccc(NC(=O)CCN4CCCCC4)cc3)nc12` [Example 28, 2-[4-[3-(Piperidinyl)]propanamidophenyl]-8-methylimidazo[1,2-a]pyridine], 0.158 µM; with `CCN(CC)CCCNc1ccc(-c2cn3cccc(C)c3n2)cc1` [Example 29, N,N-Diethyl-N′-[4-(8-methyl-imidazo[1,2-a]pyridin-2-yl)-phenyl]-propane-1,3-diamine], 0.009 µM.
Take `CCN(CC)CCCNc1ccc(-c2cn3ccc(C)cc3n2)cc1` [Example 30, N,N-Diethyl-N′-[4-(7-methyl-imidazo[1,2-a]pyridin-2-yl)-phenyl]-propane-1,3-diamine]: the Ki is 0.003 µM.
With `Cc1cccn2cc(-c3ccc(NCCN4CCCCC4)cc3)nc12` [Example 31, [4-(8-Methyl-imidazo[1,2-a]pyridin-2-yl)-phenyl]-(2-piperidin-1-yl-ethyl)-amine] the figure was 0.008 µM; with `Cc1cccn2cc(-c3ccc(NCCN4CCCC4)cc3)nc12` [Example 32, [4-(8-Methyl-imidazo[1,2-a]pyridin-2-yl)-phenyl]-(2-pyrrolidin-1-yl-ethyl)-amine], 0.007 µM.
With `Cc1ccn2cc(-c3ccc(C#CCCN4CCCCC4)cc3)nc2c1` [Example 33, 2-[4-[4-Piperidinobut-1-ynyl]phenyl]-7-methylimidazo[1,2-a]pyridine] the figure was 0.003 µM.
With `Cc1ccn2cc(-c3ccc(C#CCCN4CCCC4)cc3)nc2c1` [Example 34, 2-[4-[4-Pyrrolidinobut-1-ynyl]phenyl]-7-methylimidazo[1,2-a]pyridine], the Ki is 0.003 µM.
For `Cc1ccn2cc(-c3ccc(C#CCCN4CCCCCC4)cc3)nc2c1` [Example 35], the Ki is 0.05 µM.
For the molecule `Cc1ccn2cc(-c3ccc(CCCCN4CCCC4)cc3)nc2c1` [Example 37, 2-[4-[4-Pyrrolidinobutyl]phenyl]-7-methylimidazo[1,2-a]pyridine], the Ki was 0.01 µM.
With `Cc1ccn2cc(-c3ccc(CCCCN4CCCCC4)cc3)nc2c1` [Example 38, 7-Methyl-2-[4-(4-piperdin-1-yl-butyl)-phenyl]imidazo[1,2-a]pyridine] the figure was 0.029 µM.
With `Cc1ccn2cc(-c3ccc(CCCCN4CCCCCC4)cc3)nc2c1` [Example 39, 2-[4-(4-Azepan-1-yl-butyl)-phenyl]-7-methyl-imidazo[1,2-a]pyridine] the figure was 0.057 µM.
Consider `Cc1ccn2cc(-c3ccc(/C=C/CCN4CCCC4)cc3)nc2c1` [Example 40, 7-Methyl-2-[4-(4-pyrrolidin-1-yl-but-1-enyl)-phenyl]imidazo[1,2-a]pyridine], for which the Ki is 0.017 µM.
